PubChem BioAssay AID220 (DTP/NCI, 2004)
Values joined by “and” are separate entries in the source; they are usually repeats but may differ in a detail not shown here. Equal entries are not always repeated. Records with an inconclusive call do not appear.

System: CD8F1 mice, subcutaneous mammary adenocarcinoma, T/C%
Experiment: NCI In Vivo Anticancer Drug Screen. Data for tumor model Mammary Adenocarcinoma CD8F1 (subcutaneous) in CD8F1
Conditions: higher = larger tumour
Procedure, shortened: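 Transplantable tumors were established in mice, animals were dosed with compound or vehicle, and survival or tumor size was then measured in both groups. The treated result was divided by the control result.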

[1] = endpoint: median tumor weight (est.), dose: 25.0 mg/kg/injection, schedule: Q07DX005 (ip), vehicle: saline with Tween-80
[2] = endpoint: median tumor weight (est.), dose: 100.0 mg/kg/injection, schedule: Q07DX005 (ip), vehicle: saline with Tween-80
[3] = endpoint: median tumor weight (est.), dose: 200.0 mg/kg/injection, schedule: Q07DX005 (ip), vehicle: saline with Tween-80
[4] = endpoint: median tumor weight (est.), dose: 50.0 mg/kg/injection, schedule: Q07DX005 (ip), vehicle: saline with Tween-80
[5] = endpoint: median tumor weight (est.), dose: 12.5 mg/kg/injection, schedule: Q07DX005 (ip), vehicle: saline with Tween-80
[6] = endpoint: median tumor weight (est.), dose: 400.0 mg/kg/injection, schedule: Q07DX005 (ip), vehicle: saline with Tween-80

COC(=O)C(Cl)(Cl)N=Nc1c(Cl)cc(Cl)c(C)c1Cl
T/C [1]: 104 % of control
T/C [2]: 71 % of control
T/C [3]: 85 % of control and 110 % of control
T/C (endpoint: median tumor weight change, dose: 400.0 mg/kg/injection, schedule: Q01DX001 (ip), vehicle: saline with Tween-80): 78 % of control

CC1(C)OC2C(COC(=O)c3ccc([N+](=O)[O-])cc3)OC(NC(=O)N(CCCl)N=O)C2O1 (stereo not drawn)
T/C (endpoint: median tumor weight (est.), dose: 1.25 mg/kg/injection, schedule: Q07DX005 (ip), vehicle: saline with Tween-80): 46 % of control
T/C [1]: 51 % of control
T/C [4]: 16 % of control
T/C [2]: 36 % of control

COC1/C=C/C=C(/C)Cc2cc(O)c(Cl)c(c2)N(C)C(=O)CC(OC(=O)C(C)C)C2(C)OC2C(C)C2CC1(O)NC(=O)O2 (stereo not drawn)
T/C (endpoint: median tumor weight change, dose: 0.62 mg/kg/injection, schedule: Q01DX001 (ip), vehicle: saline + alcohol): 49 % of control
T/C (endpoint: median tumor weight change, dose: 1.25 mg/kg/injection, schedule: Q01DX001 (ip), vehicle: saline + alcohol): 34 % of control and 54 % of control
T/C (endpoint: median tumor weight change, dose: 2.5 mg/kg/injection, schedule: Q01DX001 (ip), vehicle: saline + alcohol): 50 % of control and 70 % of control
T/C (endpoint: median tumor weight change, dose: 5.0 mg/kg/injection, schedule: Q01DX001 (ip), vehicle: saline + alcohol): 54 % of control and 55 % of control
T/C (endpoint: median tumor weight change, dose: 10.0 mg/kg/injection, schedule: Q01DX001 (ip), vehicle: saline + alcohol): 35 % of control and 60 % of control
T/C (endpoint: median tumor weight change, dose: 20.0 mg/kg/injection, schedule: Q01DX001 (ip), vehicle: saline + alcohol): 48 % of control

COC1=C(N)C(=O)c2nc(-c3nc(C(=O)O)c(C)c(-c4ccc(OC)c(OC)c4O)c3N)ccc2C1=O
T/C (endpoint: median tumor weight (est.), dose: 0.1 mg/kg/injection, schedule: Q07DX005 (ip), vehicle: Klucel (hydroxypropylcellulose) (HPC)): 69 % of control
T/C (endpoint: median tumor weight (est.), dose: 0.1 mg/kg/injection, schedule: Q07DX005 (ip), vehicle: saline): 16 % of control and 34 % of control
T/C (endpoint: median tumor weight (est.), dose: 0.12 mg/kg/injection, schedule: Q07DX005 (ip), vehicle: Klucel (hydroxypropylcellulose) (HPC)): 10 % of control
T/C (endpoint: median tumor weight (est.), dose: 0.2 mg/kg/injection, schedule: Q07DX005 (ip), vehicle: Klucel (hydroxypropylcellulose) (HPC)): 12 % of control
T/C (endpoint: median tumor weight (est.), dose: 0.2 mg/kg/injection, schedule: Q07DX005 (ip), vehicle: saline): 11 % of control and 20 % of control
T/C (endpoint: median tumor weight (est.), dose: 0.4 mg/kg/injection, schedule: Q07DX005 (ip), vehicle: Klucel (hydroxypropylcellulose) (HPC)): 7 % of control
T/C (endpoint: median tumor weight (est.), dose: 0.4 mg/kg/injection, schedule: Q07DX005 (ip), vehicle: saline): 3 % of control
T/C (endpoint: median tumor weight change, dose: 0.5 mg/kg/injection, schedule: Q01DX001 (ip), vehicle: Klucel (hydroxypropylcellulose) (HPC)): 32 % of control and 41 % of control

COc1ccc(S(=O)(=O)N/N=C/C(=O)O)cc1
T/C (endpoint: median tumor weight (est.), dose: 6.25 mg/kg/injection, schedule: Q07DX005 (ip), vehicle: saline with Tween-80): 55 % of control
T/C [5]: 198 % of control
T/C [1]: 73 % of control and 82 % of control
T/C [4]: 206 % of control
T/C [3]: 44 % of control and 61 % of control

Cc1cc(NS(=O)(=O)c2ccc(N=Nc3cc(N=Nc4ccc(S(=O)(=O)Nc5cc(C)nc(C)n5)cc4)c4c(NC(=O)C(Cl)Cl)cccc4c3OC(=O)C(Cl)Cl)cc2)nc(C)n1 (tested in a mixture with another compound)
T/C (endpoint: median tumor weight change, dose: 250.0 mg/kg/injection, schedule: Q01DX001 (ip), vehicle: suspension in saline): 167 % of control
T/C (endpoint: median tumor weight change, dose: 500.0 mg/kg/injection, schedule: Q01DX001 (ip), vehicle: suspension in saline): 65 % of control

CCCCCC1c2cc(O)ccc2OC1N1CCOCC1 (stereo not drawn)
T/C (endpoint: median tumor weight change, dose: 250.0 mg/kg/injection, schedule: Q01DX001 (ip), vehicle: saline with Tween-80): 204 % of control and 73 % of control

CC[n+]1ccc(Nc2ccc(NC(=O)c3ccc(C(=O)Nc4ccc(Nc5cc[n+](CC)c(N)n5)cc4)cc3)cc2)nc1N
T/C (endpoint: median tumor weight (est.), dose: 6.25 mg/kg/injection, schedule: Q07DX005 (ip), vehicle: suspension in saline): 257 % of control
T/C (endpoint: median tumor weight (est.), dose: 25.0 mg/kg/injection, schedule: Q07DX005 (ip), vehicle: suspension in saline): 77 % of control
T/C (endpoint: median tumor weight (est.), dose: 50.0 mg/kg/injection, schedule: Q07DX005 (ip), vehicle: suspension in saline): 45 % of control
T/C (endpoint: median tumor weight (est.), dose: 100.0 mg/kg/injection, schedule: Q07DX005 (ip), vehicle: suspension in saline): 41 % of control
T/C (endpoint: median tumor weight (est.), dose: 200.0 mg/kg/injection, schedule: Q07DX005 (ip), vehicle: suspension in saline): 20 % of control

CCSC(=O)N1c2ccc(OC)cc2C=CC1C#N (stereo not drawn)
T/C [5]: 93 % of control
T/C [1]: 93 % of control
T/C [4]: 69 % of control
T/C [2]: 90 % of control
T/C (endpoint: median tumor weight (est.), dose: 225.0 mg/kg/injection, schedule: Q07DX005 (ip), vehicle: saline with Tween-80): 59 % of control
T/C [6]: 97 % of control
T/C (endpoint: median tumor weight (est.), dose: 450.0 mg/kg/injection, schedule: Q07DX005 (ip), vehicle: saline with Tween-80): 95 % of control
T/C (endpoint: median tumor weight (est.), dose: 900.0 mg/kg/injection, schedule: Q07DX005 (ip), vehicle: saline with Tween-80): 78 % of control

COc1cc2c(c(OC)c1OC)-c1ccc(OC)c(=O)cc1[C@@H](NC(C)=O)CC2
T/C (endpoint: median tumor weight (est.), dose: 0.75 mg/kg/injection, schedule: Q07DX005 (ip), vehicle: saline): 82 % of control and 97 % of control
T/C (endpoint: median tumor weight (est.), dose: 1.5 mg/kg/injection, schedule: Q07DX005 (ip), vehicle: saline): 49 % of control
T/C (endpoint: median tumor weight change, dose: 3.0 mg/kg/injection, schedule: Q01DX001 (ip), vehicle: suspension in saline): 21 % of control
T/C (endpoint: median tumor weight change, dose: 6.25 mg/kg/injection, schedule: Q01DX001 (ip), vehicle: saline): -47 % of control

CC(=O)NCCCCCCNC(C)=O
T/C (endpoint: median tumor weight change, dose: 125.0 mg/kg/injection, schedule: Q01DX001 (ip), vehicle: saline): 58 % of control
T/C (endpoint: median tumor weight change, dose: 500.0 mg/kg/injection, schedule: Q01DX001 (ip), vehicle: saline): 67 % of control
T/C (endpoint: median tumor weight change, dose: 1000.0 mg/kg/injection, schedule: Q01DX001 (ip), vehicle: saline): 52 % of control and 72 % of control
T/C (endpoint: median tumor weight change, dose: 4000.0 mg/kg/injection, schedule: Q01DX001 (ip), vehicle: saline): 39 % of control

CC12C(=O)C=CCC1=CCC1C2CCC2(O)C(=O)OC3(C)C4CC5(C)C(COC16OC23C5C6=O)C(=O)O4 (stereo not drawn)
T/C (endpoint: median tumor weight change, dose: 250.0 mg/kg/injection, schedule: Q01DX001 (ip), vehicle: Klucel (hydroxypropylcellulose) (HPC)): 96 % of control
T/C (endpoint: median tumor weight change, dose: 500.0 mg/kg/injection, schedule: Q01DX001 (ip), vehicle: Klucel (hydroxypropylcellulose) (HPC)): 35 % of control

CC(=O)Oc1ccc[nH]c1=O
T/C [1]: 68 % of control
T/C [4]: 88 % of control
T/C [2]: 93 % of control
T/C [3]: 102 % of control
T/C [6]: 118 % of control
T/C (endpoint: median tumor weight (est.), dose: 800.0 mg/kg/injection, schedule: Q07DX005 (ip), vehicle: saline with Tween-80): 54 % of control

CCOC(=O)c1ccc(NC(=O)Nc2nccs2)cc1
T/C [5]: 150 % of control
T/C [1]: 46 % of control
T/C [4]: 60 % of control
T/C [2]: 96 % of control
T/C [3]: 49 % of control
T/C [6]: 43 % of control

CC(=O)OCC1(C)NC(=O)c2ccccc2O1 (stereo not drawn)
T/C [5]: 18 % of control
T/C [1]: 40 % of control
T/C [4]: 18 % of control
T/C [2]: 37 % of control
T/C [3]: 34 % of control
T/C [6]: 24 % of control

c1cnc2ncncc2n1
T/C [5]: 84 % of control and 100 % of control
T/C [1]: 93 % of control and 100 % of control
T/C [4]: 69 % of control and 84 % of control
T/C [2]: 92 % of control and 99 % of control

O=C(O)C1CC1.[Ag]
T/C (endpoint: median tumor weight (est.), dose: 6.25 mg/kg/injection, schedule: Q07DX005 (ip), vehicle: distilled water + Tween-80): 63 % of control
T/C (endpoint: median tumor weight (est.), dose: 12.5 mg/kg/injection, schedule: Q07DX005 (ip), vehicle: distilled water + Tween-80): 88 % of control

C[N+](C)(C)c1ncnc2nc[nH]c12
T/C (endpoint: median tumor weight (est.), dose: 25.0 mg/kg/injection, schedule: Q07DX005 (ip), vehicle: saline): 194 % of control
T/C (endpoint: median tumor weight (est.), dose: 100.0 mg/kg/injection, schedule: Q07DX005 (ip), vehicle: saline): 259 % of control
T/C (endpoint: median tumor weight (est.), dose: 200.0 mg/kg/injection, schedule: Q07DX005 (ip), vehicle: saline): 186 % of control

CSCS(=O)C[C@H](CO)NC(=O)/C=C/c1c(C)[nH]c(=O)[nH]c1=O (stereo partly drawn)
T/C (endpoint: median tumor weight (est.), dose: 0.12 mg/kg/injection, schedule: Q07DX005 (ip), vehicle: saline): 100 % of control
T/C (endpoint: median tumor weight (est.), dose: 0.25 mg/kg/injection, schedule: Q07DX005 (ip), vehicle: saline): 76 % of control
T/C (endpoint: median tumor weight (est.), dose: 0.5 mg/kg/injection, schedule: Q07DX005 (ip), vehicle: saline): 50 % of control
T/C (endpoint: median tumor weight (est.), dose: 4.0 mg/kg/injection, schedule: Q07DX005 (ip), vehicle: saline): 10 % of control

CC1=C(C)C(=O)O[C@@H]([C@](C)(O)[C@]2(O)CC[C@@]3(O)[C@@H]4C[C@H]5O[C@]56CC=CC(=O)[C@]6(C)[C@H]4CC[C@]23C)C1
T/C (endpoint: median tumor weight change, dose: 25.0 mg/kg/injection, schedule: Q01DX001 (ip), vehicle: saline): 91 % of control
T/C (endpoint: median tumor weight change, dose: 50.0 mg/kg/injection, schedule: Q01DX001 (ip), vehicle: saline): 98 % of control
T/C (endpoint: median tumor weight change, dose: 200.0 mg/kg/injection, schedule: Q01DX001 (ip), vehicle: saline): 69 % of control
T/C (endpoint: median tumor weight change, dose: 400.0 mg/kg/injection, schedule: Q01DX001 (ip), vehicle: saline): 82 % of control
